From ChEMBL document CHEMBL1201862, “PubChem BioAssay data set” (2004)
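Compound exposure: 48 hours, 5 concentrations, 96-well plates. GI50 = concentration required for 50% inhibition of growth.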 The source made the active and inactive calls. Rule as the data show it: active = GI50 up to about 1.1 µM and inactive = higher.

Legend:
Test in all cases: DTP human tumour cell line panel, 48 h
SK-MEL-2 = system: SK-MEL-2
SK-OV-3 = system: SK-OV-3
K562 = system: K562
NCI-H460 = system: NCI-H460
HCT-116 = system: HCT-116
CCRF-CEM = system: CCRF-CEM
786-0 = system: 786-0
OVCAR-5 = system: OVCAR-5
UO-31 = system: UO-31
U-251 = system: U-251
TK-10 = system: TK-10
Malme-3M = system: Malme-3M
A498 = system: A498
NCI-H226 = system: NCI-H226
HOP-92 = system: HOP-92

SMILES	GI50 (SK-MEL-2)	GI50 (SK-OV-3)	GI50 (K562)	GI50 (NCI-H460)	GI50 (HCT-116)	GI50 (CCRF-CEM)	GI50 (786-0)	GI50 (OVCAR-5)	GI50 (UO-31)	GI50 (U-251)	GI50 (TK-10)	GI50 (Malme-3M)	GI50 (A498)	GI50 (NCI-H226)	GI50 (HOP-92)
COc1cc2cnc3c4cc(OC(C)C)c(OC)cc4ccc3c2cc1OC	> 100 µM (inactive)	> 100 µM (inactive)	> 100 µM (inactive)	> 100 µM (inactive)	> 100 µM (inactive)	> 100 µM (inactive)	> 100 µM (inactive)	> 100 µM (inactive)	> 100 µM (inactive)	> 100 µM (inactive)	> 100 µM (inactive)	> 100 µM (inactive)	> 100 µM (inactive)		
Cc1nc(Nc2ccc([N+](=O)[O-])cc2)sc1C(/C=C/c1ccc(N(C)C)cc1)=N/NC(=O)c1ccccc1	92 µM (inactive)	> 100 µM (inactive)	18.5 µM (inactive)	59.6 µM (inactive)	63.7 µM (inactive)	38.3 µM (inactive)	85.9 µM (inactive)	> 100 µM (inactive)	89.3 µM (inactive)	56.6 µM (inactive)	52.8 µM (inactive)	70 µM (inactive)		63 µM (inactive)	6.82 µM (inactive)
Nc1nc(Cl)cc(NCCCCCCCCNc2cc(Cl)nc(N)n2)n1	13.5 µM (inactive)	> 100 µM (inactive)	2.2 µM (inactive)	31.3 µM (inactive)	2.39 µM (inactive)	73.3 µM (inactive)	25.8 µM (inactive)		22 µM (inactive)	25.6 µM (inactive)	14.9 µM (inactive)			6.24 µM (inactive)	7.76 µM (inactive)
COc1cc(C=O)c(-c2cc3c(cc2C=O)OCO3)c(OC)c1OC	65.6 µM (inactive)	98.6 µM (inactive)	87.1 µM (inactive)	103 µM (inactive)	64.3 µM (inactive)	88.1 µM (inactive)	84.9 µM (inactive)	> 290 µM (inactive)		126 µM (inactive)	210 µM (inactive)	96.6 µM (inactive)		93.1 µM (inactive)	29.6 µM (inactive)
CCCCCCCCOCC(O)COC (stereo unspecified)		> 100 µM (inactive)	63.8 µM (inactive)	> 100 µM (inactive)	> 100 µM (inactive)	> 100 µM (inactive)	> 100 µM (inactive)	> 100 µM (inactive)	> 100 µM (inactive)	> 100 µM (inactive)	> 100 µM (inactive)	> 100 µM (inactive)	> 100 µM (inactive)	> 100 µM (inactive)	82.6 µM (inactive)
Cc1c(Cl)cccc1N1C(=O)C(Cl)=C(Cl)C1=O	> 100 µM (inactive)	> 100 µM (inactive)	17.9 µM (inactive)	> 100 µM (inactive)	> 100 µM (inactive)	16.4 µM (inactive)	98.6 µM (inactive)	> 100 µM (inactive)	> 100 µM (inactive)	> 100 µM (inactive)	> 100 µM (inactive)	> 100 µM (inactive)	> 100 µM (inactive)	> 100 µM (inactive)	> 73.8 µM (inactive)
COc1cc(C)c(CC/C(C)=C/Cc2cc(O)ccc2O)c(C)c1C [PANICEIN A HYDROQUINONE]	> 25 µM (inactive)	> 25 µM (inactive)	> 25 µM (inactive)	> 25 µM (inactive)	> 25 µM (inactive)	7.69 µM (inactive)	> 25 µM (inactive)		> 25 µM (inactive)	> 25 µM (inactive)	> 25 µM (inactive)	> 25 µM (inactive)	> 25 µM (inactive)	> 25 µM (inactive)	> 25 µM (inactive)
CCC12CC[C@H](C#N)N3CCc4c(n(c5ccccc45)C(=O)C1)C32 (stereo partly specified)	14.1 µM (inactive)	35.3 µM (inactive)	5.28 µM (inactive)	13.3 µM (inactive)	13.9 µM (inactive)	12.3 µM (inactive)	16.9 µM (inactive)	21.5 µM (inactive)	3.1 µM (inactive)	16.3 µM (inactive)	16.4 µM (inactive)	4.02 µM (inactive)	13.3 µM (inactive)		
C[C@@H]1C[C@@H]([C@H](O)CC2CC(=O)NC(=O)C2)C(=O)[C@@H](C)C1 [CYCLOHEXIMIDE]	0.106 µM (active)	0.127 µM (active)	0.0528 µM (active)	0.122 µM (active)	0.0738 µM (active)	< 0.0186 µM (active)	0.0372 µM (active)	0.141 µM (active)	0.0287 µM (active)	0.0603 µM (active)	0.0865 µM (active)	0.0889 µM (active)		0.219 µM (active)	0.0366 µM (active)
C/C(CN1C(=O)c2ccccc2C1=O)=N\NS(=O)(=O)c1cccc([N+](=O)[O-])c1	> 100 µM (inactive)	> 100 µM (inactive)	> 100 µM (inactive)	> 100 µM (inactive)	> 100 µM (inactive)	> 100 µM (inactive)	> 100 µM (inactive)	> 100 µM (inactive)	> 100 µM (inactive)	> 100 µM (inactive)	> 100 µM (inactive)	> 100 µM (inactive)	> 100 µM (inactive)	> 100 µM (inactive)	
